Consider one compound from publication PMC3880103, “Cathepsin B/X is secreted by Echinometra lucunter sea urchin spines, a structure rich in granular cells and toxins” (The Journal of Venomous Animals and Toxins Including …, 2013).

The test deals with T1, cathepsin B/X (cysteine peptidase of the spine aqueous extract).
T1 construct: gene CTSB; anti-cathepsin B bands between 60 and 80 kDa
Put plainly: fluorogenic substrate hydrolysis (MCA release), non-linear regression. The test is classed as biochemical, Echinometra lucunter. Conditions: crude spine extract; 100 mM ammonium acetate, pH 7.4, 30°C; preincubated with 2 mM DTT. The source says:
fluorogenic substrate hydrolysis (MCA release), non-linear regression on cathepsin B/X (cysteine peptidase of the spine aqueous extract)

As to `Cc1cc(=O)oc2cc(NC(=O)[C@H](CCCNC(=N)N)NC(=O)OCc3ccccc3)ccc12` [Z-R-MCA, carbobenzoxy-L-arginine-7-amino-4-methylcoumarin], the Km is 147 ± 40 µM.
